The values below come from patent US7524865B2, “Methods and compositions for treating an ocular neovascular disease” (priority 1993, dated 2009).

The test system of data set [1] is βFGF induced corneal neovascularization. Conditions: for median inhibition of the area of vascularized cornea: day 8, percent of median control. The procedure: Pellets for implantation into rabbit corneas were made by mixing 110 μl of saline containing 12 μg of recombinant βFGF (Takeda Pharmaceuticals-Japan) with 40 mg of sucralfate (Bukh Meditec-Denmark); this suspension was added to 80 μl of 12% hydron (Interferon Sciences) in ethanol. 10 μl aliquots of this mixture was then pipetted onto teflon pegs and allowed to dry producing approximately 17 pellets. A pellet was implanted into corneal micropockets of each eye of an anesthetized female New Zealand white rabbit, 2 mm from the limbus followed by topical application of erythromycin ointment onto the surface of the cornea. The animals were fed daily from 2 days post-implantation by gastric lavage with either drug suspended in 0.5% carboxymethyl cellulose or 0.5% carboxymethyl cellulose alone. Thalidomide was purchased from Andrulus Pharmaceutical (Maryland) and the EM-12 and Supidimide were kindly provided by Grunenthal GMBH (Germany). The animals were examined with a slit lamp every other day in a masked manner by the same corneal specialist. The area of corneal neovascularization was determined by measuring with a reticule the vessel length (L) from the limbus and the number of clock hours (C) of limbus involved. A formula was used to determine the area of a circular band segment: C/12*3.1416 [r^2−(r−L)^2] where r=6 mm the measured radius of the rabbit cornea.
Pellets containing βFGF and sucralfate were implanted into micropockets of both corneas of rabbits according to Example II. […] The area of corneal neovascularization was measured from day 4 through day 12. Day 8 measurements were used for comparison between groups. […] Statistical analysis was performed with ANOVA with ranked data to account for interexperimental variation and to guard against a non-normal distribution of data (i.e. outliers) by utilizing a nonparametric method.

A short description of data set [2]: Stability compared with thalidomide. In kind it is physicochemical.
For a further data set, the system named is B16-BL6 melanoma cells. In words: B16-BL6 melanoma pulmonary metastasis model. In kind it is in vivo, C57B1/6 mice. As to the method:
B16-BL6 melanoma cells (5×10^4) were injected intravenously into the tail veins of C57B1/6 mice. Three days later, the mice were treated intraperitoneally with increasing doses of thalidomide or 2-phthalimidinoglutaric acid (EM-138) on alternate days. Fourteen days after tumor cell inoculation, the lungs were removed from the mice and the surface pulmonary metastases were counted.
B16-BL6 melanoma cells (5×10^4) were injected intravenously into the tail veins of C57B1/6 mice. Three days later, the mice were treated orally with increasing doses of thalidomide or 2-phthalimidinoglutaric acid (EM-138) on alternate days. Fourteen days after tumor cell inoculation, the lungs were removed from the mice and the surface pulmonary metastases were counted.
B16-BL6 melanoma cells (5×10^4) were injected intravenously into the tail veins of C57B1/6 mice. Three days later, the mice received a gavage treatment with 0.8 mmol/kg of 2-phthalimidinoglutaric acid (EM-138). The mice received either a single treatment, five treatments on alternate days, or one treatement every day for eleven days. Fourteen days after tumor cell inoculation, the lungs were removed from the mice and the surface pulmonary metastases were counted.
B16-BL6 melanoma cells (5×10^4) were injected intravenously into the tail veins of C57B1/6 mice. Three days later, treatment began. The mice received intraperitoneal injections of thalidomide (0.4 mmol/kg), thalidomide (3.0 mmol/kg) or 2-phthalimidinoglutaric acid (EM-138) (0.4 mmol/kg) every day. Fourteen days after tumor cell inoculation, the lungs were removed from the mice and the surface pulmonary metastases were counted.

Another data set deals with Crohn's disease. Kind of data set: Treatment of a patient with Crohn's disease. Format: in vivo, human. Conditions: 100 mg twice a day orally, one week. As to the method: A patient with Crohn's disease was treated using the methods of the present invention. […] Thalidomide was orally administered to them at a dosage of 100 mg twice a day.
[3] abbreviates: 0.4 mmol/kg intraperitoneal every day from day 3, lungs day 14.

Like-named read-outs stand apart in the source and are kept apart here.

For `O=C1CCC(N2Cc3ccccc3C2=O)C(=O)N1` (stereo not shown) [EM-12], the “inhibition in rabbit cornea assay” value in data set [1] (100 mg/kg/day) is reported as 21%; in data set [1] (200 mg/kg/day), 43%. Moreover, the “median inhibition of the area of vascularized cornea” value in data set [1] (200 mg/kg orally) was found to be 42%.

As for `O=C(O)CCC(C(=O)O)N1Cc2ccccc2C1=O` (stereo not shown) [EM-138, 2-phthalimidinoglutaric acid], in data set [2], the “stability relative to thalidomide” value is “more stable than thalidomide”. For the same molecule, in the data set with B16-BL6 melanoma cells (setting [3]), the “T/C, ratio of lung metastases of treated vs. control animals” value is recorded as 0.2 and the “reduction of pulmonary metastases” value turned out to be 80%. In the data set on B16-BL6 melanoma cells (0.8 mmol/kg/day), the “inhibition of B16-BL6 metastasis” value is listed as “over 90%”. Moreover, the “inhibition of metastasis after a single administration” value with B16-BL6 melanoma cells (single administration) is “significantly inhibits metastasis”.

In the case of `O=C1NCCCC1N1C(=O)c2ccccc2S1(=O)=O` (stereo not shown) [Supidimide], the “activity in the rabbit cornea assay (in words)” value in data set [1] (200 mg/kg orally) is given as “no activity”. Besides, the “area of corneal neovascularization, % of control” value in data set [1] (200 mg/kg orally, day 8) is on record as 107 % of control.

Consider `O=C1CCC(N2C(=O)c3ccccc3C2=O)C(=O)N1` (stereo not shown) [thalidomide], for which, in data set [1] (200 mg/kg orally), the “density of vessel ingrowth” value is “markedly reduced” and the “median inhibition of the area of vascularized cornea” value was 36%. For the same molecule, the “onset of inhibition of angiogenesis” value in data set [1] (200 mg/kg orally (FIG. 7)) is recorded as “seen after only two doses”. Also, the “inhibition of the area of vascularized cornea, range in three experiments” value in data set [1] (200 mg/kg orally, begun day 2, day 8 measurements) is 30-51%. Besides, in the data set with Crohn's disease, the “gastrointestinal symptoms, including diarrhea and cramping” value is “lessened”; the “skin lesion on the lower leg” value is on record as “resolved”. Also, the “inhibition of pulmonary metastases (in words)” value in the data set on B16-BL6 melanoma cells (0.4 mmol/kg intraperitoneal every day) is given as “minimal inhibition”. The “T/C, ratio of lung metastases of treated vs. control animals” value in the data set on B16-BL6 melanoma cells (setting [3]) is 0.9. In the data set on B16-BL6 melanoma cells (3.0 mmol/kg intraperitoneal every day), the “inhibition of pulmonary metastases (in words)” value is recorded as “inhibited metastases”.
